Values of other authors in patent publication EP0266968A2, “Gelled ointment of vasodilating agent” (Cohen, Gérard G., priority 1986, dated 1988).

Tested on: penile arteries

COc1ccc(Cc2nccc3cc(OC)c(OC)cc23)cc1OC [papaverine]
erections in the organic group (29 organic impotent males, intracavernous injection): delayed, weaker and shorter erections | duration of penile erections (40 to 160 mg injected intracavernously): approximately 2 hours | patients whose erections improved significantly (63 patients with angiogenic impotence, repeated intracavernous injections completed by infusion of heparinized saline, mean follow up of one year): 66% | haemodynamic and radiologic studies (done concomitantly with intracavernous injection): strong vasodilation in the penile arteries (even when pathologic) and diminished outflow from the cavernous bodies
